According to publication PMC3155243 (Molecular cancer therapeutics, 2011):

Key:
proteasome = details: bortezomib dose 0.7 mg/m^2; cited from earlier work
advanced solid tumours = details: bortezomib days 1, 4, 8 and 11 with paclitaxel days 1 and 8; cited from earlier work
[1] = human, in vivo
[2] = with bortezomib and paclitaxel; cited from earlier work
[3] = Paclitaxel plasma pharmacokinetics
clinical = details: human, plasma, intravenous
[4] = tested on: BMK cancer cell lines and allograft tumors with RAS/RAF/MAPK pathway activation; details: baby mouse kidney (BMK) epithelial cell model; cited from earlier work
[5] = Dose Level 1: paclitaxel 40 mg/m^2 + bortezomib 0.7 mg/m^2
[6] = Dose Level 2: paclitaxel 45 mg/m^2 + bortezomib 0.75 mg/m^2
[7] = Dose Level 4: paclitaxel 60 mg/m^2 + bortezomib 1.0 mg/m^2

CC(C)C[C@H](NC(=O)[C@H](Cc1ccccc1)NC(=O)c1cnccn1)B(O)O [bortezomib]
effect on proteasome function (proteasome): effectively inhibit proteasome function | recommended phase II dose of bortezomib (advanced solid tumours): 1.3 mg/m^2 | MTD of bortezomib [1]: 1.0 mg/m^2

N.N.O=C([O-])C1(C(=O)[O-])CCC1.[Pt+2] [carboplatin]
recommended phase II dose of carboplatin [2]: 6 AUC

CC(=O)O[C@H]1C(=O)[C@@]2(C)[C@H]([C@H](OC(=O)c3ccccc3)[C@]3(O)C[C@H](OC(=O)[C@H](O)[C@@H](NC(=O)c4ccccc4)c4ccccc4)C(C)=C1C3(C)C)[C@]1(OC(C)=O)CO[C@@H]1C[C@@H]2O [paclitaxel]
AUC (last) [3, 5]: 1140 ± 450 ng·h/mL | T1/2 [3, 5]: 1.75 ± 1.45 h | AUC (last) [3, 6]: 1430 ± 900 ng·h/mL | T1/2 [3, 6]: 0.69 ± 0.20 h | AUC (last) ([3]; Dose Level 3: paclitaxel 51 mg/m^2 + bortezomib 0.86 mg/m^2): 1700 ± 370 ng·h/mL | AUC (last) [3, 7]: 2290 ± 740 ng·h/mL | T1/2 [3, 7]: 1.83 ± 0.86 h | clearance [3, 7]: 27.2 L/h | Tmax (clinical): 1 h | clearance (clinical): 283 to 800 mL/min | effect on BIM [4]: induced selective BIM accumulation
